Experimental data taken from patent publication US20250101046A1 (TAE Life Sciences LLC, priority 2023, published 2025).

Legend:
[1] = Solubility in water / need of fructose to aid solubility; type: physicochemical
[2] = test system: intracranial tumor; conditions: BNCT, beam directed to surgically exposed intracranial tumor; cited from earlier work

## COc1ccc(C[C@H](N)C(=O)O)cc1[10B](O)O [TC221, (S)-2-(amino)-3-(4-methoxy-3-boronic acid)propionic acid]
[1]
  requirement of fructose to aid solubility: does require fructose
[1]; water
  solubility in water: very soluble
[1]; with fructose, versus BPA
  threshold of solubility compared to BPA: much higher compared to BPA

## undecahydro-closo-dodecaboratethiol [BSH]
[2]
  5-year survival rate: 58%
